The subject of one test is cyclin D1. In words: Expression of cyclin D1 in MDA-MB-361 ER+ breast cancer cells treated with eFT226. Format: cell-based. The conditions noted are these: MDA-MB-361 cells, 24 hours, FIG. 1. The method, then:
(§1) The effect of eFT226 on key cell cycle regulators in MDA-MB-361 ER^+ breast cancer cells was tested. MDA-MB-361 ER^+ breast cancer cells were treated with varying concentrations of eFT226 (10 nM, 30 nM, and 100 nM) for 24 hours, and analyzed for the expression of the relevant key cell cycle regulators, cyclin D1, CDK4, and phosphorylated retinoblastoma (Rb) protein.

The next test has as its system CDK4. Put plainly: Expression of CDK4 in MDA-MB-361 ER+ breast cancer cells treated with eFT226. Format: cell-based. The following applies: MDA-MB-361 cells; eFT226 10 nM, 30 nM, 100 nM; 24 hours; FIG. 1. The method, then:
as §1

Test [1] deals with phosphorylated retinoblastoma (Rb) protein. In words: Phosphorylated Rb protein in MDA-MB-361 ER+ breast cancer cells treated with eFT226. The following applies: MDA-MB-361 cells; eFT226 10 nM, 30 nM, 100 nM; 24 hours; FIG. 1. The format is cell-based. The method, then: as §1
The subject of test [2] is MDA-MB-361 ER^+ breast cancer cells. Put plainly: Cell viability of MDA-MB-361 cells, single agents and combination. The conditions noted are these: Palbociclib 40 nM, eFT226 45 nM, 24 hours, then Palbociclib only for 6 days, versus untreated control, FIG. 2. Format: cell-based. The protocol:
MDA-MB-361 ER^+ breast cancer cells were seeded at 10,000 cells/well in 24-well plates and treated with DMSO (“control”), Palbociclib (40 nM)(“Palbo”), eFT226 (45 nM) (“eFT226”), or the combination of the two drugs (“Combo”). After 24 hours of treatment, cells were rinsed and treatment with Palbociclib only was continued for 6 days, at which time cell viability was determined. Cells were counted on day 0 and day 6, when the experiment was ended.

Test [3] shares this test system. In words: MDA-MB-361 xenograft tumor growth in athymic mice. The format is in vivo. The conditions noted are these: eFT226 0.1 mg/kg intravenously Q4D, palbociclib 30 mg/kg orally QD, 18 days, tumor volume followed up to 45 days after last dose, FIG. 3. The protocol:
The in vivo effect of a combination treatment using eFT226 and palbociclib on the tumor growth of MDA-MB-361 ER^+ breast cancer cells was tested. Xenograft experiments were performed by implanting MDA-MB-361 ER^+ breast cancer cells into athymic mice. Athymic mice implanted with MDA-MB-361 tumor cells were randomized and size-matched into vehicle and treatment groups when the mean tumor size reached ˜300 mm^3. The mice were then treated with (1) control vehicle; (2) 0.1 mg/kg of eFT226 administered intravenously every 4 days (Q4D) for a period of 18 days; (3) 30 mg/kg of palbociclib administered orally every day (QD) for a period of 18 days; or (4) 0.1 mg/kg of eFT226 administered intravenously Q4D and 30 mg/kg of palbociclib administered orally QD for a period of 18 days. The effect on the above treatments on tumor volume was monitored. Tumor volume was measured periodically for up to 45 days after the last dose of treatment was administered. […] Administration of either eFT226 or palbociclib alone led to a inhibition of tumor growth for about 22 days after the treatment was stopped. […] It is unknown what factors determine the equilibrium between the CDK4/6 inhibitor-sensitive monomeric CDK4 and the drug resistant p27-CDK4-cyclin D1 trimer.

Test [4] has as its system SW620 (KRAS G12V) colorectal cancer cells. Put plainly: Cell viability (crystal violet) in KRAS mutant SW620 cells. The conditions noted are these: Palbociclib 100 nM, eFT226 10 or 50 nM, 24 hours, then Palbociclib alone for 13 days, FIG. 4. The format is cell-based. The protocol:
(§2) SW620 (KRAS G12V) colorectal cancer cells (FIG. 1), DLD1 (KRAS G13D) colorectal cancer cells (FIG. 2), and CORL23 (KRAS G12V) NSCLC cells (FIG. 3) were seeded at 500-1,000 cells/well in 6-well plates and treated with DMSO control (“DMSO”), Palbociclib (100 nM) (“Palbo”), eFT226 (10 or 50 nM), or the combination of the two drugs (“Palbo+eFT226). After 24 hours of treatment, cells were rinsed and treatment with Palbociclib alone was continued for an additional 13 days. At the end of treatment, cells were rinsed with phosphate buffered saline (PBS) and stained with crystal violet.

Test [5] deals with DLD1 (KRAS G13D) colorectal cancer cells. Put plainly: Cell viability (crystal violet) in KRAS mutant DLD1 cells. The conditions noted are these: Palbociclib 100 nM, eFT226 10 or 50 nM, 24 hours, then Palbociclib alone for 13 days, FIG. 5. The format is cell-based. The protocol:
as §2

The test system of test [6] is CORL23 (KRAS G12V) NSCLC cells. In words: Cell viability (crystal violet) in KRAS mutant CORL23 cells. Format: cell-based. The following applies: Palbociclib 100 nM, eFT226 10 or 50 nM, 24 hours, then Palbociclib alone for 13 days, FIG. 6. The protocol:
as §2

Molecules are shown by their SMILES.

`COc1cc2c(c(OC)n1)[C@]1(O)[C@H](O)[C@H](CN(C)C)[C@@H](c3ccccc3)[C@]1(c1ccc(C#N)cc1)O2` [eFT226]: in the test with cyclin D1, the “decrease of Cyclin D1 protein levels compared with Fulvestrant” value is given as “more effective than Fulvestrant (Fulv) in decreasing Cyclin D1 protein levels”. Also, in the test with cyclin D1 (eFT226 10 nM, 30 nM, 100 nM), the “cyclin D1 expression” value was “suppression of cyclin D1 and CDK4 expression was observed in the cell line at all concentrations”. Further, in the test on CDK4, the CDK4 expression result is “suppression of cyclin D1 and CDK4 expression was observed in the cell line at all concentrations”. Moreover, the “phosphorylated Rb protein” value in test [1] is reported as “concomitant decrease in phosphorylated Rb protein”. The cell viability result in test [2], in test [4], in test [5] and in test [6] was “reduced” in each case. In test [3], the “duration of inhibition of tumor growth after the last dose” value is “about 22 days”.

Regarding `CC(=O)c1c(C)c2cnc(Nc3ccc(N4CCNCC4)cn3)nc2n(C2CCCC2)c1=O` [palbociclib, reference compound], the “duration of inhibition of tumor growth after the last dose” value in test [3] is given as “about 22 days”.
